Reference: article PMC3702004, “Comparison of Intake and Systemic Relative Effect Potencies of Dioxin-like Compounds in Female Mice after a Single Oral Dose” (Environmental Health Perspectives, 2013)

Assay: Body and organ weight, hepatic lipid content
Assay type: in vivo, female C57BL/6 mice
Details: day 3; for % lipid / g liver: pooled liver samples; for Dose with significant increase in liver weight vs vehicle controls: single oral dose
Description: Animals. Eight-week-old female C57BL/6 mice (Harlan laboratories, Venray, the Netherlands) were randomly assigned to treatment groups (six animals per group) and allowed to acclimate for 1.5 weeks. The animals were housed in groups in standard cages and conditions (23 ± 2°C, 50–60% relative humidity, 12-hr dark/light cycle) with free access to food and water. Mice received a single dose of test compound by oral gavage at a dosing volume of 10 mL/kg body weight (BW). Mice treated with corn oil vehicle (10 mL/kg BW) served as controls. For each congener, five different doses were administered, ranging from 0.5–100 μg/kg BW (TCDD) to 5,000–500,000 µg/kg BW (PCB-153). Detailed information on doses is provided in Supplemental Material, Table S1 (http://dx.doi.org/10.1289/ehp.1206336). On day 3 after dosing, animals were euthanized by CO2/O2 asphyxiation, and blood was immediately collected from the abdominal aorta. The liver, thymus, spleen, and adipose tissue were removed, weighed (liver, thymus, and spleen), snap frozen, and stored at –80°C. All animal treatments were performed with permission of the Animal Ethical Committee (DEC Utrecht) and performed according to the [Law on Animal Experiments (1977)]. Animals were treated humanely and with regard for alleviation of suffering.
Compound analysis. Adipose and liver tissues samples were homogenized in Na2SO4, followed by extraction and clean-up in one step, and then eluted with 200 mL 1:1 hexane:dichloromethane on an open column packed with 40% wt/wt H2SO4-impregnated silica and KOH-silica. Blood plasma samples were extracted on an open column using Chem-Elut (Agilent Technologies, Santa Clara, CA, USA) and then NaCl eluted with 75 mL 3:2 hexane:2-propanol. Clean-up was performed using a miniaturized silica column (as described above), and samples were eluted using 30 mL hexane. Because the samples typically contained high levels of the analytes, only a small fraction was evaporated and analyzed. Prior to evaporation, we spiked a fraction of the samples with ^13C-labeled standards. We checked potential loss of analytes during extraction and clean-up by reextracting the samples using the identical protocol used for the samples. […] Tetradecane was added prior to evaporation. Sample analysis followed the U.S. Environmental Protection Agency Method 1613 ([U.S. Environmental Protection Agency 1994]) using single ion monitoring mode on an Agilent 6809N gas chromatograph (Agilent Technologies) coupled with a Micromass Ultima Autospec Ultra high-resolution mass spectrometer (HRMS; Waters Corp., Milford, MA, USA). Compounds were separated on a 60 m × 0.25 mm DB5-MS column ([…]; J&W Scientific, Folsom, CA, USA). The HRMS was operated with electron impact ionization with electron energy of 35 eV and an ion source temperature of 250°C. To reduce the number of analyses, samples were pooled before clean-up. […] This method was used because full congener–specific separation could be achieved on the high-resolution GC–HRMS. For lipid determination, samples were evaporated to dryness after the extraction step, and the amount of lipids was determined gravimetrically. Concentrations were calculated based on lipid weight and wet weight. The analysis of samples for the PCB-118 5,000 μg/kg BW dose failed during the procedure; thus analysis for this group could not be completed.
Statistical analysis. Statistical significant differences of the means and variances were determined using one-way analysis of variance (ANOVA) followed by Tukey-Kramer multiple comparisons. Differences were considered statistically significant at p < 0.05. Statistical calculations were performed using GraphPad 6.01 (GraphPad Software Inc.).

Clc1cc2oc3c(Cl)c(Cl)c(Cl)cc3c2cc1Cl [Congener 4-PeCDF, 2,3,4,7,8-pentachlorodibenzofuran]
Body weight (oral dose 5 µg/kg bw): 19.3 ± 1.2 gram
Liver weight (oral dose 5 µg/kg bw): 5.37 ± 0.32 % of bw
Spleen weight (oral dose 5 µg/kg bw): 0.29 ± 0.05 % of bw
Thymus weight (oral dose 5 µg/kg bw): 0.26 ± 0.07 % of bw
% lipid / g liver (oral dose 5 µg/kg bw): 3.6%
Body weight (oral dose 25 µg/kg bw): 19.0 ± 1.1 gram
Liver weight (oral dose 25 µg/kg bw): 5.32 ± 0.19 % of bw
Spleen weight (oral dose 25 µg/kg bw): 0.33 ± 0.04 % of bw
Thymus weight (oral dose 25 µg/kg bw): 0.24 ± 0.04 % of bw
% lipid / g liver (oral dose 25 µg/kg bw): 4.5%
Body weight (oral dose 100 µg/kg bw): 19.2 ± 1.0 gram
Liver weight (oral dose 100 µg/kg bw): 5.94 ± 0.27 % of bw
Spleen weight (oral dose 100 µg/kg bw): 0.32 ± 0.03 % of bw
Thymus weight (oral dose 100 µg/kg bw): 0.22 ± 0.04 % of bw
% lipid / g liver (oral dose 100 µg/kg bw): 4.5%
Body weight (oral dose 250 µg/kg bw): 19.8 ± 1.0 gram
Liver weight (oral dose 250 µg/kg bw): 6.05 ± 0.42 % of bw
Spleen weight (oral dose 250 µg/kg bw): 0.34 ± 0.04 % of bw
Thymus weight (oral dose 250 µg/kg bw): 0.23 ± 0.03 % of bw
Body weight (oral dose 1000 µg/kg bw): 20.2 ± 1.1 gram
Liver weight (oral dose 1000 µg/kg bw): 6.35 ± 0.30 % of bw
Spleen weight (oral dose 1000 µg/kg bw): 0.32 ± 0.02 % of bw
Thymus weight (oral dose 1000 µg/kg bw): 0.22 ± 0.04 % of bw
Dose with significant increase in liver weight vs vehicle controls: ≥ 100 µg/kg BW

Clc1ccc(-c2cc(Cl)c(Cl)cc2Cl)cc1Cl [PCB-118, 2,3´,4,4´,5-pentachlorobiphenyl]
Body weight (oral dose 5000 µg/kg bw): 18.3 ± 0.9 gram
Liver weight (oral dose 5000 µg/kg bw): 5.04 ± 0.22 % of bw
Spleen weight (oral dose 5000 µg/kg bw): 0.32 ± 0.03 % of bw
Thymus weight (oral dose 5000 µg/kg bw): 0.27 ± 0.03 % of bw
% lipid / g liver (oral dose 5000 µg/kg bw): 2.7%
Body weight (oral dose 15000 µg/kg bw): 18.3 ± 0.8 gram
Liver weight (oral dose 15000 µg/kg bw): 5.06 ± 0.22 % of bw
Spleen weight (oral dose 15000 µg/kg bw): 0.33 ± 0.05 % of bw
Thymus weight (oral dose 15000 µg/kg bw): 0.23 ± 0.04 % of bw
% lipid / g liver (oral dose 15000 µg/kg bw): 3.3%
Body weight (oral dose 50000 µg/kg bw): 18.0 ± 1.8 gram
Liver weight (oral dose 50000 µg/kg bw): 4.87 ± 0.41 % of bw
Spleen weight (oral dose 50000 µg/kg bw): 0.30 ± 0.03 % of bw
Thymus weight (oral dose 50000 µg/kg bw): 0.20 ± 0.05 % of bw
% lipid / g liver (oral dose 50000 µg/kg bw): 3.5%
Body weight (oral dose 150000 µg/kg bw): 19.2 ± 0.8 gram
Liver weight (oral dose 150000 µg/kg bw): 6.14 ± 0.45 % of bw
Spleen weight (oral dose 150000 µg/kg bw): 0.34 ± 0.04 % of bw
Thymus weight (oral dose 150000 µg/kg bw): 0.21 ± 0.05 % of bw
% lipid / g liver (oral dose 150000 µg/kg bw): 4.6%
Body weight (oral dose 500000 µg/kg bw): 19.1 ± 1.0 gram
Liver weight (oral dose 500000 µg/kg bw): 7.23 ± 0.29 % of bw
Spleen weight (oral dose 500000 µg/kg bw): 0.31 ± 0.03 % of bw
Thymus weight (oral dose 500000 µg/kg bw): 0.23 ± 0.04 % of bw
Dose with significant increase in liver weight vs vehicle controls: ≥ 150,000 µg/kg BW

Clc1ccc(-c2cc(Cl)c(Cl)c(Cl)c2)cc1Cl [PCB-126, 3,3´,4,4´,5-pentachlorobiphenyl]
Body weight (oral dose 5 µg/kg bw): 19.3 ± 0.9 gram
Liver weight (oral dose 5 µg/kg bw): 4.97 ± 0.38 % of bw
Spleen weight (oral dose 5 µg/kg bw): 0.33 ± 0.04 % of bw
Thymus weight (oral dose 5 µg/kg bw): 0.27 ± 0.06 % of bw
% lipid / g liver (oral dose 5 µg/kg bw): 3.4%
Body weight (oral dose 25 µg/kg bw): 18.9 ± 1.4 gram
Liver weight (oral dose 25 µg/kg bw): 4.96 ± 0.35 % of bw
Spleen weight (oral dose 25 µg/kg bw): 0.33 ± 0.06 % of bw
Thymus weight (oral dose 25 µg/kg bw): 0.29 ± 0.05 % of bw
% lipid / g liver (oral dose 25 µg/kg bw): 3.7%
Body weight (oral dose 100 µg/kg bw): 19.5 ± 0.7 gram
Liver weight (oral dose 100 µg/kg bw): 5.07 ± 0.19 % of bw
Spleen weight (oral dose 100 µg/kg bw): 0.31 ± 0.04 % of bw
Thymus weight (oral dose 100 µg/kg bw): 0.25 ± 0.06 % of bw
% lipid / g liver (oral dose 100 µg/kg bw): 4.4%
Body weight (oral dose 250 µg/kg bw): 19.3 ± 1.3 gram
Liver weight (oral dose 250 µg/kg bw): 5.43 ± 0.19 % of bw
Spleen weight (oral dose 250 µg/kg bw): 0.32 ± 0.02 % of bw
Thymus weight (oral dose 250 µg/kg bw): 0.26 ± 0.04 % of bw
Body weight (oral dose 1000 µg/kg bw): 18.8 ± 0.9 gram
Liver weight (oral dose 1000 µg/kg bw): 5.64 ± 0.20 % of bw
Spleen weight (oral dose 1000 µg/kg bw): 0.39 ± 0.16 % of bw
Thymus weight (oral dose 1000 µg/kg bw): 0.27 ± 0.04 % of bw
Dose with significant increase in liver weight vs vehicle controls: ≥ 1,000 µg/kg BW
